Results from publication PMC6749370, “Antibacterial Evaluation, In Silico Characters and Molecular Docking of Schiff Bases Derived from 5-aminopyrazoles” (Molecules, 2019).
In brackets after ≈: the same amount, converted by molar mass. Marks after values point to notes of the source that are not given here.

Legend:
[1] = system: Staphylococcus aureus (MRSA, Sa); assay: Minimal inhibitory concentration against multi-drug resistant bacteria; type: cell-based; conditions: NA: No Activity
Protocol: (§1) In vitro antibacterial activities against multi-drug resistant bacteria (MDRB) of Schiff bases 14–25 were performed at botany and microbiology department, Faculty of Science, Al-Azhar University, Cairo, Egypt. The antibacterial potential of 14–25 were investigated towards the multi-drug resistant bacteria (MDRB). The results were summarized as the diameter of the inhibition zones in mm and minimal inhibitory concentration (MIC, µg/mL) values in Table 2.
(§2) The synthesized compounds, Schiff bases 14–25, were in vitro evaluation of their antibacterial properties against multi-drug resistant bacteria (MDRB). Examples of Gram-positive bacteria are Staphylococcus aureus (MRSA, Sa), Staphylococcus epidermis (Sp), and Enterococcus faecalis (Ef). Examples of Gram-negative bacteria are Acinetobacter baumannii (Ab), Enterobacter cloaca (Ecl), and Escherichia coli (Ec). All the tested strain was identified by Vitek®2 system. The multi-drug resistant to antibiotics such as Ampicillin, Cephalexin, Colisin, Ipemenem, and Meropenem was verified.

[2] = system: Enterococcus faecalis (Ef); assay: as above; type: cell-based; conditions: NA: No Activity
Protocol: as §1, §2

Escherichia coli (Ec) = assay: as above; type: cell-based; conditions: NA: No Activity
Protocol: as §1, §2

[3] = system: Staphylococcus epidermis (Se); assay: as above; type: cell-based; conditions: NA: No Activity
Protocol: as §1, with “(MDRB).” for “(MDRB). The results were summarized as the diameter of the inhibition zones in mm and minimal inhibitory concentration (MIC, µg/mL) values in Table 2.”
as §2, with “system.” for “system. The multi-drug resistant to antibiotics such as Ampicillin, Cephalexin, Colisin, Ipemenem, and Meropenem was verified.”

[4] = system: Enterobacter cloaca (Ecl); assay: as above; type: cell-based; conditions: NA: No Activity
Protocol: as §1, with “(MDRB).” for “(MDRB). The results were summarized as the diameter of the inhibition zones in mm and minimal inhibitory concentration (MIC, µg/mL) values in Table 2.”
as §2, with “system.” for “system. The multi-drug resistant to antibiotics such as Ampicillin, Cephalexin, Colisin, Ipemenem, and Meropenem was verified.”

[5] = system: Acinetobacter baumannii (Ab); assay: as above; type: cell-based; conditions: NA: No Activity
Protocol: as §1, with “(MDRB).” for “(MDRB). The results were summarized as the diameter of the inhibition zones in mm and minimal inhibitory concentration (MIC, µg/mL) values in Table 2.”
as §2, with “system.” for “system. The multi-drug resistant to antibiotics such as Ampicillin, Cephalexin, Colisin, Ipemenem, and Meropenem was verified.”

Topoisomerase IV = Topoisomerase IV (Staphylococcus aureus, UniProt P0C1S7+P0C1U9); assay: In vitro enzyme inhibition assay; type: biochemical
[6] = molecular target: Staphylococcus aureus DNA gyrase (Staphylococcus aureus, UniProt P0A0K8+P20831); assay: In vitro enzyme inhibition assay; type: biochemical; conditions: mean of three values, read-out: IC50 (Mean ± SEM) DNA Gyrase

Compound | MIC [1] [µg/mL] | MIC [2] [µg/mL] | MIC (Escherichia coli (Ec)) [µg/mL] | MIC [3] [µg/mL] | MIC [4] [µg/mL] | MIC [5] [µg/mL] | Minimal inhibitory concentration (MIC), Ec (Escherichia coli (Ec)) | Minimal inhibitory concentration (MIC), Ecl [4] | Minimal inhibitory concentration (MIC), Ef [2] | Minimal inhibitory concentration (MIC), Sa [1] | Minimal inhibitory concentration (MIC), Ab [5] | IC50 (Topoisomerase IV) [µM] | IC50 [6] [µM]
O=C(O)c1cn(C2CC2)c2cc(N3CCNCC3)c(F)cc2c1=O [Ciprofloxacin, reference compound] | 7.81 (≈ 23.6 µM) | 7.81 (≈ 23.6 µM) | 7.81 (≈ 23.6 µM) | – | – | – | – | – | – | – | – | – | –
COc1ccc(Nc2n[nH]c(/N=C/c3ccc(Cl)cc3)c2C(=O)Nc2ccccc2)cc1 [Compound 16] | 31.2 (≈ 70.1 µM) | 62.5 (≈ 140 µM) | 125 (≈ 280 µM) | 7.81 (≈ 17.5 µM) | 62.5 (≈ 140 µM) | 15.6 (≈ 35 µM) | – | – | – | – | 15.62 * µg/mL | – | –
COc1ccc(Nc2n[nH]c(/N=C/c3ccccc3)c2C(=O)Nc2ccc(C)cc2)cc1 [Compound 18] | 15.6 (≈ 36.7 µM) | 31.2 (≈ 73.4 µM) | 250 (≈ 588 µM) | 7.81 (≈ 18.4 µM) | 62.5 (≈ 147 µM) | 15.6 (≈ 36.7 µM) | – | – | – | 15.62 * µg/mL | 15.62 * µg/mL | 74.6 ± 1.2 | 1.68 ± 0.1
COc1ccc(Nc2n[nH]c(/N=C/c3ccc(F)cc3)c2C(=O)Nc2ccc(C)cc2)cc1 [Compound 21] | 125 (≈ 282 µM) | – | – | 62.5 (≈ 141 µM) | – | – | – | – | – | – | – | – | –
COc1ccc(Nc2n[nH]c(/N=C/c3ccccc3)c2C(=O)Nc2ccc(Cl)cc2)cc1 [Compound 22] | 250 (≈ 561 µM) | 125 (≈ 280 µM) | – | 125 (≈ 280 µM) | 15.6 (≈ 35 µM) | – | – | 15.62 * µg/mL | – | – | – | – | –
COc1ccc(Nc2n[nH]c(/N=C/c3ccc(C)cc3)c2C(=O)Nc2ccc(Cl)cc2)cc1 [Compound 23] | 31.2 (≈ 67.9 µM) | 7.81 (≈ 17 µM) | – | 15.6 (≈ 34 µM) | 62.5 (≈ 136 µM) | – | – | – | 7.81 * µg/mL | – | – | – | –

The remaining molecules from weak to strong by MIC [1], led by results:

MIC [1] [µg/mL] | MIC [2] [µg/mL] | MIC (Escherichia coli (Ec)) [µg/mL] | MIC [3] [µg/mL] | MIC [4] [µg/mL] | MIC [5] [µg/mL] | Minimal inhibitory concentration (MIC), Ec (Escherichia coli (Ec)) | Minimal inhibitory concentration (MIC), Ecl [4] | Minimal inhibitory concentration (MIC), Ef [2] | Compound | Minimal inhibitory concentration (MIC), Sa [1] | Minimal inhibitory concentration (MIC), Ab [5] | IC50 (Topoisomerase IV) [µM] | IC50 [6] [µM]
125 (≈ 260 µM) | 15.6 (≈ 32.5 µM) | 125 (≈ 260 µM) | 62.5 (≈ 130 µM) | 62.5 (≈ 130 µM) | – | – | – | – | COc1ccc(Nc2n[nH]c(/N=C/c3ccc(Cl)cc3)c2C(=O)Nc2ccc(Cl)cc2)cc1 [Compound 24] | – | – | – | –
62.5 (≈ 147 µM) | 31.2 (≈ 73.4 µM) | 125 (≈ 294 µM) | 15.6 (≈ 36.7 µM) | 62.5 (≈ 147 µM) | 62.5 (≈ 147 µM) | – | – | – | COc1ccc(Nc2n[nH]c(/N=C/c3ccc(C)cc3)c2C(=O)Nc2ccccc2)cc1 [Compound 15] | 62.50 µg/mL (≈ 147 µM) | – | – | –
62.5 (≈ 146 µM) | – | 31.2 (≈ 72.8 µM) | 31.2 (≈ 72.8 µM) | 125 (≈ 291 µM) | 62.5 (≈ 146 µM) | 31.25 * µg/mL | – | – | COc1ccc(Nc2n[nH]c(/N=C/c3ccc(F)cc3)c2C(=O)Nc2ccccc2)cc1 [Compound 17] | – | – | – | –
62.5 (≈ 136 µM) | 250 (≈ 544 µM) | – | 125 (≈ 272 µM) | – | – | – | – | – | COc1ccc(Nc2n[nH]c(/N=C/c3ccc(Cl)cc3)c2C(=O)Nc2ccc(C)cc2)cc1 [Compound 20] | – | – | – | –
31.2 (≈ 75.9 µM) | 15.6 (≈ 38 µM) | – | 7.81 (≈ 19 µM) | 125 (≈ 304 µM) | – | – | – | – | COc1ccc(Nc2n[nH]c(/N=C/c3ccccc3)c2C(=O)Nc2ccccc2)cc1 [Compound 14] | – | – | – | –
31.2 (≈ 71.1 µM) | 15.6 (≈ 35.5 µM) | 62.5 (≈ 142 µM) | 15.6 (≈ 35.5 µM) | 125 (≈ 284 µM) | 62.5 (≈ 142 µM) | – | – | – | COc1ccc(Nc2n[nH]c(/N=C/c3ccc(C)cc3)c2C(=O)Nc2ccc(C)cc2)cc1 [Compound 19] | – | – | – | –
